Here are results for six substances from patent US9222070B2, “Cell therapy method for the treatment of tumors” (Janssen Pharmaceuticals, Inc., priority 2001, dated 2015).

One experiment relates to CD8 cells. The experiment is described as follows: Ex vivo CTL generation with peptide-loaded Drosophila cells. Conditions: for frequency of CTL generation: normal donors, summary of Table 7; for CTL activity elicited by single epitope on Drosophila cells: donor #60, peptide added alone, lysis on JY cells, vs control HBc peptide. It is filed as cell-based, human. From the text: Human CTLs from healthy subjects were immunized in vitro against tyrosinase, MART-1 and gp100 when loaded separately on Drosophila APCs and evaluated for lysis on JY cells (FIG. 4). […] Melanoma-specific CTLs from healthy subjects were induced using the full stimulation/re-stimulation protocol and tested for their ability to lyse Jurkat cells loaded with each of the of the peptides used in the stimulations (FIG. 5). […]. […] One in which the multiple peptides were loaded onto individual Drosophila cells and mixed before the primary stimulation (combo mix), or the multiple peptides were mixed and then loaded onto the Drosophila APCs (combo load).
All of the peptides were synthesized, given an identification number (PRI#) and evaluated for the ability to generate CTLs ex vivo utilizing the same method we employed for melanoma-associated, T cell peptide epitopes. CD8 cells were isolated from normal donors to determine the ability to routinely generate CTLs ex vivo with Drosophila cells loaded with known CTL peptide epitopes.
Standard ^51Cr-release assays were performed to determine CTL effector cell recognition of melanoma-associated peptide epitopes loaded onto T2 cells. […] 0.1mCi of ^51Cr was added and incubated at 37° C. in a water bath. […] The cells were pulsed with the appropriate peptide(s) at 20 μg/mL for thirty minutes. 50 μL was added to each 96-well plate each containing CD8 effector cells at 10, 2, 0.4, and 0.08×10^6/mL, which was incubated at 37° C. for six hours, spun and harvested for supernatant.
To extend the ability to raise CTLs to other tumor antigens present in a wide variety of other cancers we have selected published and novel sequences to tumor antigens common to several different tumor types.

A further experiment has as its target T1, HLA-A2.1 molecule (Homo sapiens, UniProt P04439, D140Y/D185E/D98H/E176V/E277Q/G131W/G231S/I119V/I121R/I166T/I218V/L300P/L318F/N151K/N90K/P208A/P217A/Q86G/Q94H/R138H/R169H/T345S).
T1 construct: expressed in transfected cells; host or cells: Drosophila melanogaster Schneider S2 cells (ATCC CRL 10974), pRmHa-3 vector, CuSO4 induction
The experiment is described as follows: Peptide binding on Drosophila cells expressing HLA-A2.1.

The next experiment deals with HTB-77/A2.1 cell line. The experiment is described as follows: 51Cr-release lysis after IFNγ pretreatment. It counts as cell-based, human. Conditions: 500 U/ml for twenty-four hours prior to 51Cr-release assay. The protocol:
(§1) The cells were treated with 500 U/ml of IFNγ (specific activity of 25 ng/ml) for twenty-four hours prior to the initiation of the ^51Cr-release assay. […] To determine the effect of this dose of IFNg on the surface expression of both HLA-A2.1 and HER-2, a FACS analysis was performed to determine the levels of these molecules after both twenty-four and forty-eight hours of induction. FIG. 18, Panels A and B depict the FACS analysis results. […] This would explain why there is an enhance killing of the HTB-77/A2.1 cells in the presence of IFNγ. An up-regulation of this particular molecule would result in more efficient processing of the HER-2 molecule, allowing better presentation of the peptides of interest

The test system of another experiment is HER-2. The experiment is described as follows: FACS analysis of surface expression after IFNγ induction. It counts as cell-based, human. On the procedure: as §1
A general note: A flow cytometer gives signals particle by particle.

A further experiment relates to HLA-A2.1. The experiment is described as above. It counts as cell-based, human. To be noted: HLA-A2.1 transfected HTB-77 cells, similar treatment protocol. On the procedure:
as §1

Another experiment relates to TAP-1. The experiment is described as follows: Microarray DNA chip analysis of mRNA levels after IFNγ induction. It is filed as cell-based, human. Conditions: HTB-77/A2.1 cells after IFNγ induction.
The subject of a further experiment is CD8+ T cells. Briefly: HLA-A2.1 tetramer staining of HER-2 peptide-specific CTLs. It is filed as cell-based, human. Conditions: donor 262, after four-week ex vivo stimulation protocol.
Experiment [1] relates to breast adenocarcinoma cell line (ATCC; HTB-131) transfected with HLA-A2.1. Briefly: Tumor lysis by HER-2 peptide-specific CTL effectors. It is filed as cell-based, human. Conditions: cell line transfected with HLA-A2.1.

Protocol for CD8+ T cells: The cells were labeled with FITC- or PE conjugated monoclonal antibodies by incubation at 4° C. for 30 minutes in FACS buffer (1% BSA, 0.02% NaN3 in PBS), followed by a wash in the same buffer. Cells were fixed in 0.5% formaldehyde prior to data acquisition and analysis on a FACScan flow cytometer (Becton Dickinson) with its CellQuest software. Nonspecific staining was measured with the same secondary antibody used to label purified primary antibodies, or an isotype-matched control when the primary antibodies were directly labeled. Tetrameric staining was performed with HLA-A2.1 specific HIVgag tetrameric molecules (Beckman Coulter) harboring the sequence [sequence] […] PE-labeled tetrameric HLA-A2.1-peptide complexes were used in conjunction with fluorescein isothiocyanate (FITC)-labeled anti-human CD8a (BD PharMagin) monoclonal antibodies to stain epitope-specific CD8+ T cells as described in package insert. Samples were analyzed by two-color flow cytometry on a Becton Dickinson FACScan, and gated CD8+ T cells were examined for staining with tetrameric HLA-A2.1-peptide complexes.

Consider ELVSEFSRM [Peptide 863], for which the “frequency of CTL generation” value in the experiment with CD8 cells is “highest frequency of CTL generation”. Moreover, in the experiment with HLA-A2.1 molecule, the “binding to the HLA-A2.1 molecule on transfected Drosophila cells” value was “weak to moderate binders”.
In the case of ITDQVPFSV [Peptide 817], the “CTL activity elicited by single epitope on Drosophila cells” value with CD8 cells is “CTL activity was elicited”.
Take “IFNγ: interferon gamma used to pretreat tumor cell lines at 500 U/ml”: the “lysis of HLA-A2.1 transfected cell line” value in the experiment on HTB-77/A2.1 cell line is on record as “enhanced lysis”. In addition, the HER-2 surface expression result is recorded as “neither HER-2 nor HLA-A2.1 demonstrated an increase” with HER-2 (HLA-A2.1 transfected HTB-77 cells, similar treatment protocol); “no enhancement” with HER-2 (HTB-77 cells, twenty-four and forty-eight hours after induction). Further, the HLA-A2.1 surface expression result in the experiment on HLA-A2.1 is recorded as “neither HER-2 nor HLA-A2.1 demonstrated an increase”. The “level of TAP-1 expression (mRNA); also HLA-DM and -DR, Cathepsin S and D and Caspase 5” value in the experiment with TAP-1 is recorded as “increase in the level of TAP-1 expression”.
For the substance VMAGVGSPYV [Peptide 861], in the experiment on CD8 cells, the “frequency of CTL generation” value was “highest frequency of CTL generation”. For the same substance, the “peptide-specific CTLs, tetramer-positive” value in the experiment on CD8+ T cells is reported as 15.1%. Besides, the “binding to the HLA-A2.1 molecule on transfected Drosophila cells” value in the experiment with HLA-A2.1 molecule is listed as “weak to moderate binders”. Moreover, in experiment [1], the “lysis of tumor cell line by CTLs specific for the peptide” value was “could lysis this tumor cell line”.
For the substance CLTSTVQLV [Peptide 826], in the experiment with CD8 cells, the “frequency of CTL generation” value is “highest frequency of CTL generation”.
With YMNGTMSQV [Peptide 689], in the experiment with CD8 cells, the “CTL activity elicited by single epitope on Drosophila cells” value is given as “CTL activity was elicited”.
